Measured values taken from PMC5218480 (PLoS ONE, 2017).

System: MV-4-11 cells
Assay: Gene expression microarray analysis (Affymetrix PrimeView) and GSEA
Format: cell-based, human
Design: RFU PODN (11730768_x_at) / Fold change /veh PODN (11730768_x_at) / RFU LINC00158 (11744669_a_at) / Fold change /veh LINC00158 (11744669_a_at) / RFU DUSP10 (11751237_a_at) / Fold change /veh DUSP10 (11751237_a_at) / RFU ID3 (11757404_x_at) / Fold change /veh ID3 (11757404_x_at) / RFU PLEKHG5 (11737974_s_at) / Fold change /veh PLEKHG5 (11737974_s_at) / RFU LRRC4B (11730491_at) / Fold change /veh LRRC4B (11730491_at) / RFU GIMAP4 (11747438_a_at) / Fold change /veh GIMAP4 (11747438_a_at) / RFU KRT8 (11758183_x_at) / Fold change /veh KRT8 (11758183_x_at) / RFU CNN1 (11734310_a_at) / Fold change /veh CNN1 (11734310_a_at) / RFU VPS37D (11726825_at) / Fold change /veh VPS37D (11726825_at) / RFU C10orf10 (11716522_x_at) / Fold change /veh C10orf10 (11716522_x_at) / RFU KIR2DL2 /// KIR2DL4 /// KIR2DL5A /// KIR2DL5B /// KIR2DS1 /// KIR2DS2 /// KIR2DS3 /// KIR2DS4 /// KIR3DL3 /// KIR3DL3 /// KIR3DS1 (11738374_at) / Fold change /veh KIR2DL2 /// KIR2DL4 /// KIR2DL5A /// KIR2DL5B /// KIR2DS1 /// KIR2DS2 /// KIR2DS3 /// KIR2DS4 /// KIR3DL3 /// KIR3DL3 /// KIR3DS1 (11738374_at) / RFU C1QL1 (11718748_at) / Fold change /veh C1QL1 (11718748_at) / RFU TMPRSS4 (11747572_a_at) / Fold change /veh TMPRSS4 (11747572_a_at) / RFU HAMP (11756126_x_at) / Fold change /veh HAMP (11756126_x_at) / RFU RNFT2 (11725882_a_at) / Fold change /veh RNFT2 (11725882_a_at) / RFU NR4A2 (11747474_a_at) / Fold change /veh NR4A2 (11747474_a_at) / RFU ABCC12 (11746883_a_at) / Fold change /veh ABCC12 (11746883_a_at) / RFU TMEM136 (11760407_x_at) / Fold change /veh TMEM136 (11760407_x_at) / RFU CLDN22 /// WWC2 (11732394_at) / Fold change /veh CLDN22 /// WWC2 (11732394_at) / RFU HLA-DPB1 (11760878_x_at) / Fold change /veh HLA-DPB1 (11760878_x_at) / RFU SPINT1 (11716480_a_at) / Fold change /veh SPINT1 (11716480_a_at) / RFU GAP43 (11754022_s_at) / Fold change /veh GAP43 (11754022_s_at) / RFU A4GNT (11735810_at) / Fold change /veh A4GNT (11735810_at) / RFU PRB3 (11715151_x_at) / Fold change /veh PRB3 (11715151_x_at) / RFU TUBB4B (11761932_at) / Fold change /veh TUBB4B (11761932_at) / RFU CAPN14 (11732068_a_at) / Fold change /veh CAPN14 (11732068_a_at) / RFU TMCC2 (11721928_a_at) / Fold change /veh TMCC2 (11721928_a_at) / RFU IRGQ (11745062_a_at) / Fold change /veh IRGQ (11745062_a_at) / RFU FAM174B (11720279_a_at) / Fold change /veh FAM174B (11720279_a_at) / RFU TMPRSS4 (11748680_a_at) / Fold change /veh TMPRSS4 (11748680_a_at) / RFU FAM212B (11763350_a_at) / Fold change /veh FAM212B (11763350_a_at) / RFU PLEKHG5 (11743358_a_at) / Fold change /veh PLEKHG5 (11743358_a_at) / RFU ZSCAN30 (11745921_a_at) / Fold change /veh ZSCAN30 (11745921_a_at) / RFU CMKLR1 (11741424_a_at) / Fold change /veh CMKLR1 (11741424_a_at) / RFU LOC101060620 /// MAPK8IP1 (11723275_at) / Fold change /veh LOC101060620 /// MAPK8IP1 (11723275_at) / RFU SPTSSB (11747773_x_at) / Fold change /veh SPTSSB (11747773_x_at) / RFU PRSS12 (11739890_at) / Fold change /veh PRSS12 (11739890_at) / RFU BIN1 (11741810_x_at) / Fold change /veh BIN1 (11741810_x_at) / RFU WNT11 (11732464_a_at) / Fold change /veh WNT11 (11732464_a_at) / RFU C10orf10 (11716521_a_at) / Fold change /veh C10orf10 (11716521_a_at) / RFU C5orf56 (11738089_at) / Fold change /veh C5orf56 (11738089_at) / RFU CYB561 (11721691_x_at) / Fold change /veh CYB561 (11721691_x_at) / RFU ANKRD19P (11752326_a_at) / Fold change /veh ANKRD19P (11752326_a_at) / RFU OR2T12 /// OR2T33 /// OR2T8 (11738714_s_at) / Fold change /veh OR2T12 /// OR2T33 /// OR2T8 (11738714_s_at) / RFU VCAN (11748164_a_at) / Fold change /veh VCAN (11748164_a_at) / RFU JSRP1 (11732532_at) / Fold change /veh JSRP1 (11732532_at) / RFU KRTAP10-11 (11738290_x_at) / Fold change /veh KRTAP10-11 (11738290_x_at) / RFU MYO3A (11730013_a_at) / Fold change /veh MYO3A (11730013_a_at) / RFU EBF3 (11725865_a_at) / Fold change /veh EBF3 (11725865_a_at) / RFU CAMK2N1 (11719241_x_at) / Fold change /veh CAMK2N1 (11719241_x_at) / RFU C5orf56 (11738088_a_at) / Fold change /veh C5orf56 (11738088_a_at) / RFU OLFML3 (11715873_a_at) / Fold change /veh OLFML3 (11715873_a_at) / RFU LOC100653217 /// NTM (11731650_a_at) / Fold change /veh LOC100653217 /// NTM (11731650_a_at) / RFU MAPK11 (11762145_a_at) / Fold change /veh MAPK11 (11762145_a_at) / RFU FIZ1 (11724087_x_at) / Fold change /veh FIZ1 (11724087_x_at) / RFU OASL (11726364_x_at) / Fold change /veh OASL (11726364_x_at) / RFU SOX15 (11748057_x_at) / Fold change /veh SOX15 (11748057_x_at) / RFU CD79A (11719716_a_at) / Fold change /veh CD79A (11719716_a_at) / RFU HIST1H1D (11736915_at) / Fold change /veh HIST1H1D (11736915_at) / RFU CASKIN2 (11723855_a_at) / Fold change /veh CASKIN2 (11723855_a_at) / RFU LOC730098 (11760151_x_at) / Fold change /veh LOC730098 (11760151_x_at) / RFU OR4N2 (11742367_at) / Fold change /veh OR4N2 (11742367_at) / RFU PRRT2 (11749266_a_at) / Fold change /veh PRRT2 (11749266_a_at) / RFU SNX32 (11753110_a_at) / Fold change /veh SNX32 (11753110_a_at) / RFU CDHR5 (11726645_a_at) / Fold change /veh CDHR5 (11726645_a_at) / RFU RCAN1 (11760418_a_at) / Fold change /veh RCAN1 (11760418_a_at) / RFU FAM167A (11723789_a_at) / Fold change /veh FAM167A (11723789_a_at) / RFU FAM26E (11764081_at) / Fold change /veh FAM26E (11764081_at) / RFU ISYNA1 (11749810_s_at) / Fold change /veh ISYNA1 (11749810_s_at) / RFU ACY1 (11761880_at) / Fold change /veh ACY1 (11761880_at) / RFU 11764098_at / Fold change /veh 11764098_at / RFU SAMD14 (11745864_x_at) / Fold change /veh SAMD14 (11745864_x_at) / RFU NPB (11741838_a_at) / Fold change /veh NPB (11741838_a_at) / RFU TMPRSS6 (11731388_a_at) / Fold change /veh TMPRSS6 (11731388_a_at) / RFU KRTAP10-2 (11738614_at) / Fold change /veh KRTAP10-2 (11738614_at) / RFU ARHGAP8 /// PRR5-ARHGAP8 (11727945_x_at) / Fold change /veh ARHGAP8 /// PRR5-ARHGAP8 (11727945_x_at) / RFU KRTAP5-7 /// NADSYN1 (11734609_at) / Fold change /veh KRTAP5-7 /// NADSYN1 (11734609_at) / RFU RASL12 (11751679_a_at) / Fold change /veh RASL12 (11751679_a_at) / RFU CDKN2B (11736163_a_at) / Fold change /veh CDKN2B (11736163_a_at) / RFU PRF1 (11729649_at) / Fold change /veh PRF1 (11729649_at) / RFU, ZNF638 /// ZNF638-IT1 / Fold change vs veh, ZNF638 /// ZNF638-IT1 / RFU, PANK3 / Fold change vs veh, PANK3 / RFU, SH3YL1 / Fold change vs veh, SH3YL1 / RFU, ZEB2 / Fold change vs veh, ZEB2 / RFU, NRIP1 / Fold change vs veh, NRIP1 / RFU, PTTG1IP / Fold change vs veh, PTTG1IP / RFU, CAPN2 / Fold change vs veh, CAPN2 / RFU, MED14 / Fold change vs veh, MED14 / RFU, SNORA58 / Fold change vs veh, SNORA58 / RFU, C1orf63 / Fold change vs veh, C1orf63 / RFU, LRRFIP1 / Fold change vs veh, LRRFIP1 / RFU, NDUFAF7 / Fold change vs veh, NDUFAF7 / RFU, SLC12A2 / Fold change vs veh, SLC12A2 / RFU, IBTK / Fold change vs veh, IBTK / RFU, ESF1 / Fold change vs veh, ESF1 / Fold change vs veh, TMEM50B / RFU, TAOK1 / Fold change vs veh, TAOK1 / RFU, ACBD3 / Fold change vs veh, ACBD3 / RFU, TMA16 / Fold change vs veh, TMA16 / RFU, RWDD3 / Fold change vs veh, RWDD3 / RFU, BCAT1 / Fold change vs veh, BCAT1 / RFU, EDEM3 / Fold change vs veh, EDEM3 / RFU, TMEM33 / Fold change vs veh, TMEM33 / RFU, WDR75 / Fold change vs veh, WDR75 / RFU, AHCTF1 / Fold change vs veh, AHCTF1 / RFU, TFRC / Fold change vs veh, TFRC / RFU, ZDHHC17 / Fold change vs veh, ZDHHC17 / RFU, NOM1 / Fold change vs veh, NOM1 / RFU, ARL8B / Fold change vs veh, ARL8B / RFU, ZBTB11 / Fold change vs veh, ZBTB11 / RFU, TAMM41 / Fold change vs veh, TAMM41 / RFU, KIAA1704 /// LOC100996395 / Fold change vs veh, KIAA1704 /// LOC100996395 / RFU, ING1 / Fold change vs veh, ING1 / RFU, TRMT61B / Fold change vs veh, TRMT61B / RFU, FUBP3 / Fold change vs veh, FUBP3 / RFU, TP53 / Fold change vs veh, TP53 / RFU, TNKS2 / Fold change vs veh, TNKS2 / RFU, ZFP14 / Fold change vs veh, ZFP14 / RFU, ACTR2 / Fold change vs veh, ACTR2 / RFU, PPP3R1 / Fold change vs veh, PPP3R1 / RFU, PIK3R1 / Fold change vs veh, PIK3R1 / RFU, HNRNPA1 / Fold change vs veh, HNRNPA1 / RFU, RNF170 / Fold change vs veh, RNF170 / RFU, ZNF28 / Fold change vs veh, ZNF28 / RFU, RNGTT / Fold change vs veh, RNGTT / RFU, OGT / Fold change vs veh, OGT / RFU, BRD1 / Fold change vs veh, BRD1 / RFU, MARS / Fold change vs veh, MARS / RFU, ZNF655 / Fold change vs veh, ZNF655 / RFU, FAHD1 / Fold change vs veh, FAHD1 / RFU, BDP1 / Fold change vs veh, BDP1 / RFU, LRRCC1 / Fold change vs veh, LRRCC1 / RFU, ARID1A / Fold change vs veh, ARID1A / RFU, ZNF146 / Fold change vs veh, ZNF146 / RFU, ZNF330 / Fold change vs veh, ZNF330 / RFU, GPN3 / Fold change vs veh, GPN3 / RFU, C9orf123 / Fold change vs veh, C9orf123 / RFU, N4BP2L2 / Fold change vs veh, N4BP2L2 / RFU, ARFIP1 / Fold change vs veh, ARFIP1 / RFU, FAM179B / Fold change vs veh, FAM179B / RFU, BCL10 / Fold change vs veh, BCL10 / RFU, UHRF1BP1L / Fold change vs veh, UHRF1BP1L / RFU, BET1 / Fold change vs veh, BET1 / RFU, CNOT2 / Fold change vs veh, CNOT2 / RFU, ZNF268 / Fold change vs veh, ZNF268 / Fold change vs veh, ZNF507 / RFU, DGCR2 / Fold change vs veh, DGCR2 / RFU, WDSUB1 / Fold change vs veh, WDSUB1 / Fold change vs veh, HSP90B1 /// MIR3652 / RFU, ADSS / Fold change vs veh, ADSS / RFU, GK / Fold change vs veh, GK / RFU, ZNF148 / Fold change vs veh, ZNF148 / RFU, TAF9 / Fold change vs veh, TAF9 / RFU, SLC1A5 / Fold change vs veh, SLC1A5 / RFU, SLMO2 / Fold change vs veh, SLMO2 / RFU, ABCC4 / Fold change vs veh, ABCC4 / RFU, LOC101060439 /// RAP1B / Fold change vs veh, LOC101060439 /// RAP1B / RFU, RFX7 / Fold change vs veh, RFX7 / RFU, GTPBP10 / Fold change vs veh, GTPBP10 / RFU, CNEP1R1 / Fold change vs veh, CNEP1R1 / RFU, BIVM-ERCC5 /// ERCC5 / Fold change vs veh, BIVM-ERCC5 /// ERCC5 / RFU, ILF3 / Fold change vs veh, ILF3 / RFU 11762660_at / Fold change /veh 11762660_at / RFU VCAN (11757783_s_at) / Fold change /veh VCAN (11757783_s_at) / RFU DDX43 (11728927_at) / Fold change /veh DDX43 (11728927_at) / RFU KRT8 (11758188_x_at) / Fold change /veh KRT8 (11758188_x_at) / RFU NKD1 (11759106_at) / Fold change /veh NKD1 (11759106_at) / RFU SRD5A1 (11742802_a_at) / Fold change /veh SRD5A1 (11742802_a_at) / RFU TPSAB1 /// TPSB2 (11721975_s_at) / Fold change /veh TPSAB1 /// TPSB2 (11721975_s_at) / RFU GSTM3 (11746129_a_at) / Fold change /veh GSTM3 (11746129_a_at) / RFU IL23R (11737362_x_at) / Fold change /veh IL23R (11737362_x_at) / RFU TMEM51 (11727254_a_at) / Fold change /veh TMEM51 (11727254_a_at) / RFU PIWIL2 (11732686_x_at) / Fold change /veh PIWIL2 (11732686_x_at) / RFU ORM1 (11744905_x_at) / Fold change /veh ORM1 (11744905_x_at) / RFU CCDC152 (11743942_at) / Fold change /veh CCDC152 (11743942_at) / RFU ECM1 (11717891_a_at) / Fold change /veh ECM1 (11717891_a_at) / RFU IL23R (11748794_a_at) / Fold change /veh IL23R (11748794_a_at) / RFU TNFAIP8L3 (11732012_x_at) / Fold change /veh TNFAIP8L3 (11732012_x_at) / RFU MBOAT4 (11741988_at) / Fold change /veh MBOAT4 (11741988_at) / RFU 11764193_at / Fold change /veh 11764193_at / RFU TMEM53 (11763286_at) / Fold change /veh TMEM53 (11763286_at) / RFU MAGEB2 (11727129_at) / Fold change /veh MAGEB2 (11727129_at) / RFU TMEM200A (11744735_a_at) / Fold change /veh TMEM200A (11744735_a_at) / RFU CCDC152 (11751479_a_at) / Fold change /veh CCDC152 (11751479_a_at) / RFU FAM211A (11726209_a_at) / Fold change /veh FAM211A (11726209_a_at) / RFU RGS16 (11746705_a_at) / Fold change /veh RGS16 (11746705_a_at) / RFU VCAN (11755009_s_at) / Fold change /veh VCAN (11755009_s_at) / RFU RHOB (11743442_s_at) / Fold change /veh RHOB (11743442_s_at) / RFU RGS16 (11720943_a_at) / Fold change /veh RGS16 (11720943_a_at) / RFU RGS16 (11720944_at) / Fold change /veh RGS16 (11720944_at) / RFU, VPS4B / Fold change vs veh, VPS4B / RFU, CREB1 / Fold change vs veh, CREB1 / RFU, DNAJC13 / Fold change vs veh, DNAJC13 / RFU, GNAQ / Fold change vs veh, GNAQ / RFU, CDK5R1 / Fold change vs veh, CDK5R1 / RFU, ZRANB3 / Fold change vs veh, ZRANB3 / RFU, CUL4A / Fold change vs veh, CUL4A / RFU, CCNY / Fold change vs veh, CCNY / RFU, UFL1 / Fold change vs veh, UFL1 / RFU, COG3 / Fold change vs veh, COG3 / RFU, DIAPH2 / Fold change vs veh, DIAPH2 / RFU, SKA2 / Fold change vs veh, SKA2 / RFU, AFF3 / Fold change vs veh, AFF3 / RFU, LMF1 / Fold change vs veh, LMF1 / RFU, IPO11 / Fold change vs veh, IPO11 / RFU, DFFB / Fold change vs veh, DFFB / RFU, FOXP1 / Fold change vs veh, FOXP1 / RFU, CARD8 / Fold change vs veh, CARD8 / RFU, STRN3 / Fold change vs veh, STRN3 / RFU, ADK / Fold change vs veh, ADK / RFU, RASSF2 / Fold change vs veh, RASSF2 / RFU, WIPF1 / Fold change vs veh, WIPF1 / RFU, LARP1B / Fold change vs veh, LARP1B / RFU, RASA1 / Fold change vs veh, RASA1 / RFU, RB1 / Fold change vs veh, RB1 / RFU, PPFIA1 / Fold change vs veh, PPFIA1 / RFU, MAT2A / Fold change vs veh, MAT2A / RFU, CCT5 / Fold change vs veh, CCT5 / RFU, WDR92 / Fold change vs veh, WDR92 / RFU, CUX1 / Fold change vs veh, CUX1 / RFU, TTC7A / Fold change vs veh, TTC7A / RFU, TMEM135 / Fold change vs veh, TMEM135 / RFU, DEPTOR / Fold change vs veh, DEPTOR / RFU, CPM / Fold change vs veh, CPM / RFU, DNAJB6 / Fold change vs veh, DNAJB6 / RFU, CACNA2D3 / Fold change vs veh, CACNA2D3 / RFU, DTX4 / Fold change vs veh, DTX4 / RFU, TFCP2 / Fold change vs veh, TFCP2 / RFU, GMCL1 /// GMCL1P1 / Fold change vs veh, GMCL1 /// GMCL1P1 / RFU, AEBP2 / Fold change vs veh, AEBP2 / RFU, SNHG1 /// SNORD22 /// SNORD25 /// SNORD26 /// SNORD27 /// SNORD28 /// SNORD29 /// SNORD31 / Fold change vs veh, SNHG1 /// SNORD22 /// SNORD25 /// SNORD26 /// SNORD27 /// SNORD28 /// SNORD29 /// SNORD31 / Fold change (Aza/veh), C12orf56 (ProbeSet 11735607_a_at) / Fold change (ACY-1035/veh), C12orf56 (ProbeSet 11735607_a_at) / Fold change (Aza/veh), FGFR1OP (ProbeSet 11751329_s_at) / Fold change (ACY-1035/veh), FGFR1OP (ProbeSet 11751329_s_at) / Fold change (Aza/veh), VPS36 (ProbeSet 11739960_a_at) / Fold change (ACY-1035/veh), VPS36 (ProbeSet 11739960_a_at) / RFU SYPL1 (11715823_x_at) / Fold change /veh SYPL1 (11715823_x_at) / RFU IGFBP7 (11715501_s_at) / Fold change /veh IGFBP7 (11715501_s_at) / RFU REEP3 (11722064_at) / Fold change /veh REEP3 (11722064_at) / RFU IGLL1 (11728026_x_at) / Fold change /veh IGLL1 (11728026_x_at): dose or concentration left out as unconfirmed
Settings: MV-4-11 cells, 48 hours

For `Nc1ccc(-c2cccs2)cc1NC(=O)c1ccc2c(c1)cc(C1CC1)n2CCN1CCOCC1` [ACY-1035], which “Fold change /veh SPINT1 (11716480_a_at)” value is on record?
Its value is 1.05.
